Experimental data published in patent US10307425B2, “Compositions and methods for treating toxoplasmosis, cryptosporidiosis and other apicomplexan protozoan related diseases” (UNIVERSITY OF WASHINGTON, priority 2015, dated 2019).

The compounds below were run against TgCDPK1 (Toxoplasma gondii, UniProt Q9BJF5) (assay: biochemical).
Sequence of TgCDPK1 (Q9BJF5 1-507): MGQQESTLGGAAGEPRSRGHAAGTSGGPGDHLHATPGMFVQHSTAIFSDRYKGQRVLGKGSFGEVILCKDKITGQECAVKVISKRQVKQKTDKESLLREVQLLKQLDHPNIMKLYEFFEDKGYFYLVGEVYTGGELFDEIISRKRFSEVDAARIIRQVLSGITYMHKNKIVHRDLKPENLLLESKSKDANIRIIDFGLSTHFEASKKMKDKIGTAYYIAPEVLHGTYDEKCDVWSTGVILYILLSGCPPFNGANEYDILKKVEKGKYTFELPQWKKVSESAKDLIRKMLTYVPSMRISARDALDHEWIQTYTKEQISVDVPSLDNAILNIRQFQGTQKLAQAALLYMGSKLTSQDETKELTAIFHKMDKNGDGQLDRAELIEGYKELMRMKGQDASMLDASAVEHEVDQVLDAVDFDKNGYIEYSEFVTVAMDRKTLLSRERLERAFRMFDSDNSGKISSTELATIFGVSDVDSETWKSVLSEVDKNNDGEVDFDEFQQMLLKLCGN

Which IC50 does the source give for `CC(C)(CO)Cn1nc(-c2ccc3nc(OCC(F)(F)F)ccc3c2)c2c(N)ncnc21` [Example 2, 3-(4-Amino-3-(2-(2,2,2-trifluoroethoxy)quinolin-6-yl)-1H-pyrazolo[3,4-d]pyrimidin-1-yl)-2,2-dimethylpropan-1-ol] here?
Its IC50 is 17.2 nM.

`CC(C)Cn1nc(-c2ccc3cc(OC4CC4)ccc3c2)c2c(N)ncnc21` [Example 9, 3-(6-cyclopropoxynaphthalen-2-yl)-1-isobutyl-1H-pyrazolo[3,4-d]pyrimidin-4-amine] was tested. Which IC50 did it give?
The IC50 was 6 nM.

Which IC50 does the source give for `CN1CCC(Cn2nc(-c3ccc4cc(OC5COC5)ccc4c3)c3c(N)ncnc32)CC1` [Example 12, 1-((1-Methylpiperidin-4-yl)methyl)-3-(6-(oxetan-3-yloxy)naphthalen-2-yl)-1H-pyrazolo[3,4-d]pyrimidin-4-amine] here?
The IC50 was 10.7 nM.

Which IC50 does the source give for `Nc1ncnc2c1c(-c1ccc3cc(OCC4CC4)ccc3c1)nn2CC1CCOCC1` [Example 29, 3-(6-(cyclopropylmethoxy)naphthalen-2-yl)-1-((tetrahydro-2H-pyran-4-yl)methyl)-1H-pyrazolo[3,4-d]pyrimidin-4-amine] here?
Its IC50 is 4.8 nM.

`Nc1ncnc2c1c(-c1ccc3cc(OC4CCC4)ccc3c1)nn2CC1CCOCC1` [Example 30, 3-(6-cyclobutoxynaphthalen-2-yl)-1-((tetrahydro-2H-pyran-4-yl)methyl)-1H-pyrazolo[3,4-d]pyrimidin-4-amine] was tested. Which IC50 did it give?
Its IC50 is 2.6 nM.

For `Nc1ncnc2c1c(-c1ccc3cc(OC4COC4)ccc3c1)nn2CC1CCOCC1` [Example 31, 3-(6-(oxetan-3-yloxy)naphthalen-2-yl)-1-((tetrahydro-2H-pyran-4-yl)methyl)-1H-pyrazolo[3,4-d]pyrimidin-4-amine], which IC50 is on record?
The IC50 was 35.8 nM.

How did the IC50 turn out when `CCOc1ccc2cc(-c3nn(CC(C)(C)CO)c4ncnc(N)c34)ccc2c1` [Example 32, 3-(4-amino-3-(6-ethoxynaphthalen-2-yl)-1H-pyrazolo[3,4-d]pyrimidin-1-yl)-2,2-dimethylpropan-1-ol] was run?
Its IC50 is 1.2 nM.

`CC(C)Cn1nc(-c2ccc3cc(OCCO)ccc3c2)c2c(N)ncnc21` [Example 34, 2-(6-(4-amino-1-isobutyl-1H-pyrazolo[3,4-d]pyrimidin-3-yl)naphthalen-2-yloxy)ethanol] was tested. Which IC50 did it give?
The IC50 was 5.8 nM.

For `CC(C)Cn1nc(-c2ccc3cc(OC4COC4)ccc3c2)c2c(N)ncnc21` [Example 35, 1-isobutyl-3-(6-(oxetan-3-yloxy)naphthalen-2-yl)-1H-pyrazolo[3,4-d]pyrimidin-4-amine], which IC50 is on record?
Its IC50 is 4 nM.

`COCCOc1ccc2cc(-c3nn(CC(C)C)c4ncnc(N)c34)ccc2c1` [Example 36, 1-isobutyl-3-(6-(2-methoxyethoxy)naphthalen-2-yl)-1H-pyrazolo[3,4-d]pyrimidin-4-amine] was tested. Which IC50 did it give?
The IC50 was 1.7 nM.

With `CCOc1ccc2cc(-c3nn(CC(C)(C)CO)c4ncnc(N)c34)ccc2n1` [Example 37, 3-(4-amino-3-(2-ethoxyquinolin-6-yl)-1H-pyrazolo[3,4-d]pyrimidin-1-yl)-2,2-dimethylpropan-1-ol] as the compound, how does the IC50 read?
Its IC50 is 1.7 nM.

How did the IC50 turn out when `COCCOc1ccc2cc(-c3nn(CC(C)(C)C)c4ncnc(N)c34)ccc2n1` [Example 38, 3-(2-(2-methoxyethoxy)quinolin-6-yl)-1-neopentyl-1H-pyrazolo[3,4-d]pyrimidin-4-amine] was run?
The IC50 was 3.8 nM.

With `Nc1ncnc2c1c(-c1ccc3nc(OC4CC4)ccc3c1)nn2CC1CCNCC1` [Example 39, 3-(2-cyclopropoxyquinolin-6-yl)-1-(piperidin-4-ylmethyl)-1H-pyrazolo[3,4-d]pyrimidin-4-amine] as the compound, how does the IC50 read?
Its IC50 is 1 nM.

With `Nc1ncnc2c1c(-c1ccc3nc(OC4CC4)ccc3c1)nn2CC1CNC1` [Example 40, 1-(azetidin-3-ylmethyl)-3-(2-cyclopropoxyquinolin-6-yl)-1H-pyrazolo[3,4-d]pyrimidin-4-amine] as the compound, how does the IC50 read?
The IC50 was 2.3 nM.

`CN1CC(Cn2nc(-c3ccc4nc(OC5CC5)ccc4c3)c3c(N)ncnc32)C1` [Example 41, 3-(2-cyclopropoxyquinolin-6-yl)-1-((1-methylazetidin-3-yl)methyl)-1H-pyrazolo[3,4-d]pyrimidin-4-amine] was tested. Which IC50 did it give?
Its IC50 is 2.8 nM.
